Assay: xn = mol fraction of the nth substance listed

CC(C)c1ccccc1 + CC(C)O
viscosity [mPa·s], 101 kPa
Details	x2 = 0.1013	x2 = 0.2013	x2 = 0.2991	x2 = 0.4002	x2 = 0.4993	x2 = 0.6002	x2 = 0.7002	x2 = 0.8006	x2 = 0.9002
303.15 K	0.6764	0.6831	0.7003	0.7299	0.7766	0.8482	0.9452	1.104	1.34
308.15 K	0.6347	0.6402	0.6534	0.6776	0.7151	0.7732	0.8534	0.9869	1.183
313.15 K	0.5971	0.599	0.6093	0.6291	0.6596	0.7081	0.7742	0.8854	1.046
318.15 K	0.562	0.5619	0.5682	0.5853	0.611	0.6508	0.7041	0.7975	0.9303
323.15 K	0.5287	0.5275	0.5322	0.5444	0.5654	0.5976	0.6419	0.7195	0.8272

CCCCCCCC(=O)O + CC(C)[C@@H]1CC[C@@H](C)C[C@H]1O
viscosity [mPa·s]
Details	293.15 K	298 K	298.15 K	303.15 K	308.15 K	313.15 K	318.15 K	323.15 K
100 kPa, x1 = 0.4	19.83	–	15.29	12.01	9.58	7.8	6.43	5.37
101 kPa, x2 = 0.333	–	12	–	–	–	–	–	–

CCCN + CCC(C)(C)O
Details	viscosity [mPa·s]
308.15 K, 101 kPa, x2 = 0.9498	2.305

CCCCOC(C)=O + CCC(C)=O
308 K, 101 kPa
Details	viscosity [mPa·s]
x1 = 0.0999	0.468
x1 = 0.2002	0.484
x1 = 0.3	0.52
x1 = 0.4	0.533
x1 = 0.4997	0.569
x1 = 0.5997	0.584
x1 = 0.7	0.606
x1 = 0.7997	0.642
x1 = 0.9004	0.669

Oc1ccccc1Cl + CCC(C)=O
298.15 K, 101 kPa
Details	viscosity [mPa·s]
x1 = 0.1005	0.517
x1 = 0.1961	0.7
x1 = 0.3003	0.913
x1 = 0.3994	1.322
x1 = 0.501	1.744
x1 = 0.6001	2.277
x1 = 0.6991	2.736
x1 = 0.8006	3.091
x1 = 0.8991	3.315
